This is an account of results in patent US12624018B1, “Inhibitors of RIPK2 and medical uses thereof” (Odyssey Therapeutics, Inc., priority 2022, dated 2026).

One experiment deals with T1, RIPK2 enzyme (Homo sapiens, UniProt O43353).
T1 construct: purchased Carna 09-128
The experiment in a line: RIPK2 inhibition (ADP-Glo Kinase Assay). In kind it is biochemical. The note with it: RIPK2 5 nM, ATP 150 μM, MBP substrate, read-out: RIPK2 IC50. A digest of the protocol:
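Human RIPK2 (5 nM) preincubated with compound 30 min at room temperature in 50 mM HEPES pH 7.5, 10 mM MgCl2, 2 mM DTT, 1 mM EGTA, 0.01% Brij-35, 0.05% BSA; native swine MBP as substrate. ADP formed quantified by ADP-Glo luminescence; percent inhibition relative to DMSO and no-enzyme controls.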
(In general: In ADP-Glo the light output rises with the ADP produced.)

The test system of the next experiment is human NOD2 signaling. The experiment in a line: Inhibition of human NOD2 signaling in HEK-Blue-hNOD2 cells (L18-MDP stimulated, SEAP reporter). The format is cell-based. Conditions: NOD2 ligand stimulation, SEAP reporter, read-out: hNOD2 IC50. A digest of the protocol: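 HEK-Blue-hNOD2 cells (HEK293 with NOD2 and SEAP reporter), 12500/well, treated with 10-point 3-fold compound dilutions plus L18-MDP 0.5 ng/mL final, 24 h at 37 °C. Supernatant SEAP read with QUANTI-Blue after 3 h at 620 nm; IC50 by 4-parameter fit vs DMSO±L18-MDP controls.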

In experiment [1] the test system is TNF-alpha secretion in human whole blood. In words: Inhibition of TNF-alpha secretion in human whole blood (IFN-gamma primed, L18-MDP stimulated). In kind it is cell-based. Conditions: L18-MDP 100 ng/mL, read-out: Human Whole Blood TNFα IC50. As to the method:
Materials: Assay medium consisted of RPMI 1640 medium (catalogue number: 11875119) and 10% heat inactivated FBS (Cytvia). U-PLEX Biomarker Assay (cat #K15067L-4) to detect levels of TNF-alpha was purchased from Meso Scale Discovery. Heparinized whole blood from healthy donors/volunteers was obtained through Research Blood Components, LLC.
Test compounds were prepared into a 10 mM DMSO solution and serially diluted into 9 points using a 3-fold dilution in a 96 well plate. A 10× working stock solution of recombinant human IFN-gamma (final concentration of 10 ng/mL) was prepared in assay medium and used to prepare a 10× solution of test compound. 20 μL of 10×IFN-gamma and test compound (or DMSO control) was added to a 96-well plate. 160 μL of heparinized whole blood obtained from healthy donors was dispensed into individual wells of the 96-well plate and placed on a plate shaker (150 rpm) and incubated for 60 min at 37° C. in a CO2 incubator. Subsequently, 20 μL of L18-MDP (final concentration of 100 ng/mL) was added to the appropriate wells and further incubated for 16 hours on a plate shaker (150 rpm) at 37° C. in a CO2 incubator. The final concentration of DMSO was 0.05% (v/v) in all wells. After incubation, 100 μL of DPBS was added per well, mixed by shaking at 500 rpm for 2 minutes, followed by centrifugation (400×g for 10 minutes) and collection of supernatants. TNF-alpha in supernatants was measured using MSD immunoassay (MesoScale Discovery). 4-parametric curve fit was used to determine the test compound concentration that results in 50% reduction of TNF-alpha concentration in supernatant relative to assay controls.

In experiment [2] the target is T2, RIPK2 and XIAP protein-protein interaction (Homo sapiens, UniProt O43353).
T2 construct: the N-terminus of full-length RIPK2 was appended with the HaloTag fusion protein; expressed in transfected cells; host or cells: HEK293T
T2 sequence (O43353 whole entry, the tested form may be a part): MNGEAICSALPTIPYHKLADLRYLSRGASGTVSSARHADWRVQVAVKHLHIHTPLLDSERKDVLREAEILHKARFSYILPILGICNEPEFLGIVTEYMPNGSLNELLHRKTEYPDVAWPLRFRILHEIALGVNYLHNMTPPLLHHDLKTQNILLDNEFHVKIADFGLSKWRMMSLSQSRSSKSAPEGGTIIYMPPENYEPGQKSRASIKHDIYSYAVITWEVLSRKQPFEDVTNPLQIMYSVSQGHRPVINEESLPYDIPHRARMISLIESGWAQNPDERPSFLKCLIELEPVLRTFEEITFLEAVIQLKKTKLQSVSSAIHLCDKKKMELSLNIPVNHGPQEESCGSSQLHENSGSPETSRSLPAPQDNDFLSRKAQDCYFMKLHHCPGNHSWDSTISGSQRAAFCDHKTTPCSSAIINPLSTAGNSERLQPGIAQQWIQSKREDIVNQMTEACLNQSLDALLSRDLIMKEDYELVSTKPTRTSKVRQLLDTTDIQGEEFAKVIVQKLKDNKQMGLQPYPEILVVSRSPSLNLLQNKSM
The experiment in a line: Inhibition of the interaction of RIPK2 with XIAP (NanoBRET in HEK293T cells). In kind it is cell-based. Conditions: RIPK2 HaloTag / XIAP NanoLuc, read-out: NanoBRET Scaffolding IC50. Put shortly: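 HEK293T cells transiently co-transfected with HaloTag-RIPK2 (N-terminal) and XIAP-NanoLuc (C-terminal) full-length fusions, grown 24 h at 37° C. in Opti-MEM with 4% FBS. Compounds tested as 10-point 3-fold dilutions; NanoBRET ratio taken as 618 nm acceptor over 460 nm donor emission.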

Setting [3] is: Homo sapiens, HEK-Blue hNOD2, HEK-Blue-hNOD2 cells.

Read-outs that look alike come from different tables or passages of the source.

T1 sequence (O43353 1-299 limits assumed): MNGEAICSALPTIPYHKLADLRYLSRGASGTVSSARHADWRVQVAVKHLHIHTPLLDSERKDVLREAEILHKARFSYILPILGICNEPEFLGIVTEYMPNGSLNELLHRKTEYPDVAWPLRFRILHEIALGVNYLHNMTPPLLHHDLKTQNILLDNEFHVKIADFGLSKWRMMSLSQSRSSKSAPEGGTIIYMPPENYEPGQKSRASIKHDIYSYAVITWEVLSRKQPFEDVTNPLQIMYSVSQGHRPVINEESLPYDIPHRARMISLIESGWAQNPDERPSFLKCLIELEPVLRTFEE

In the case of `CC(C)(C)n1cc(NC(=O)Cc2ccc(Oc3ccnc4ccc(S(C)(=N)=O)cc34)c(Cl)c2)cn1` (single isomer, unassigned) [Compound 197, N-(1-(tert-butyl)-1H-pyrazol-4-yl)-2-(3-chloro-4-((6-(S-methylsulfonimidoyl)quinolin-4-yl)oxy)phenyl)acetamide], the IC50 was less than 2.5 nM on RIPK2 enzyme; 4 nM with human NOD2 signaling (setting [3]); 24 nM in experiment [1] (Homo sapiens, 16 h); 93 nM in experiment [2].

For `Cc1cc(C(C)C(=O)Nc2cnn(C(C)(C)C)c2)ccc1Oc1ccnc2ccc(S(C)(=O)=O)cc12` (single isomer, unassigned) [Compound 215, N-(1-(tert-butyl)-1H-pyrazol-4-yl)-2-(3-methyl-4-((6-(methylsulfonyl)quinolin-4-yl)oxy)phenyl)propanamide], the IC50 on RIPK2 enzyme is less than 2.5 nM; in the experiment with human NOD2 signaling (setting [3]), 3.2 nM; in experiment [1] (Homo sapiens, 16 h), 55 nM; in experiment [2], 39 nM.

On to `Cc1c(Oc2ccnc3ccc(S(=N)(=O)C4CC4)cc23)ccc(CC(=O)Nc2cnn(C(C)(C)C)c2)c1F` (single isomer, unassigned) [Compound 441, N-(1-(tert-butyl)-1H-pyrazol-4-yl)-2-(4-((6-(cyclopropanesulfonimidoyl)quinolin-4-yl)oxy)-2-fluoro-3-methylphenyl)acetamide], for which the IC50 was less than 2.5 nM at RIPK2 enzyme; 0.2 nM with human NOD2 signaling (setting [3]); 6 nM in experiment [1] (Homo sapiens, 16 h); 8 nM in experiment [2].

Turning to `Cc1c(Oc2ccnc3ccc(S(=N)(=O)C4CC4)cc23)ccc(CC(=O)Nc2cnn(C(C)(C)C)c2)c1F` (single isomer, unassigned) [Compound 442, N-(1-(tert-butyl)-1H-pyrazol-4-yl)-2-(4-((6-(cyclopropanesulfonimidoyl)quinolin-4-yl)oxy)-2-fluoro-3-methylphenyl)acetamide], the IC50 at RIPK2 enzyme was less than 2.5 nM; in the experiment with human NOD2 signaling (HEK-Blue-hNOD2 cells), 0.2 nM; in experiment [1] (16 hours) it was 7 nM; in experiment [2], 3 nM.

`Cc1cc(CC(=O)Nc2cnn(C(C)(C)C)c2)ccc1Oc1ccnc2ccc(S(=N)(=O)C3CC3)cc12` (single isomer, unassigned) [Compound 543, N-(1-(tert-butyl)-1H-pyrazol-4-yl)-2-(4-((6-(cyclopropanesul-fonimidoyl)quinolin-4-yl)oxy)-3-methylphenyl) acetamide]: the IC50 on RIPK2 enzyme is less than 2.5 nM; in the experiment with human NOD2 signaling (setting [3]) it was 1.2 nM; in experiment [1] (Homo sapiens, 16 h), 3 nM; in experiment [2], 77.5 nM.

On to `Cc1cc(CC(=O)Nc2cnn(C(C)(C)C)c2)ccc1Oc1ccnc2ccc(S(=N)(=O)C3CC3)cc12` (single isomer, unassigned) [Compound 544, N-(1-(tert-butyl)-1H-pyrazol-4-yl)-2-(4-((6-(cyclopropanesul-fonimidoyl)quinolin-4-yl)oxy)-3-methylphenyl) acetamide], for which the IC50 at RIPK2 enzyme is less than 2.5 nM; with human NOD2 signaling (HEK-Blue-hNOD2 cells) it was 2 nM; in experiment [1] (16 hours), 4.5 nM; in experiment [2], 123 nM.

On to `CCS(=N)(=O)c1ccc2nccc(Oc3ccc(CC(=O)Nc4cnn(C(C)(C)C)c4)cc3C)c2c1` (single isomer, unassigned) [Compound 545, N-(1-(tert-butyl)-1H-pyrazol-4-yl)-2-(4-((6-(ethylsulfonimidoyl)quinolin-4-yl)oxy)-3-methylphenyl) acetamide], for which the IC50 on RIPK2 enzyme is less than 2.5 nM; with human NOD2 signaling (setting [3]), 1.8 nM; in experiment [1] (Homo sapiens, 16 h), 5.9 nM; in experiment [2], 184 nM.

In the case of `CCS(=N)(=O)c1ccc2nccc(Oc3ccc(CC(=O)Nc4cnn(C(C)(C)C)c4)cc3C)c2c1` (single isomer, unassigned) [Compound 546, N-(1-(tert-butyl)-1H-pyrazol-4-yl)-2-(4-((6-(ethylsulfonimidoyl)quinolin-4-yl)oxy)-3-methylphenyl) acetamide], the IC50 at RIPK2 enzyme is less than 2.5 nM; in the experiment with human NOD2 signaling (HEK-Blue-hNOD2 cells), 1.4 nM; in experiment [1] (16 hours), 4 nM; in experiment [2], 204 nM.

Consider `COc1ccc2ncnc(Oc3ccc(CC(=O)Nc4cnn(C(C)(C)C)c4)c(F)c3)c2c1` [Compound 8, N-(1-(tert-butyl)-1H-pyrazol-4-yl)-2-(2-fluoro-4-((6-methoxy-quinazolin-4-yl)oxy)phenyl) acetamide], for which the IC50 was found to be 7.6 nM at RIPK2 enzyme; 11.4 nM with human NOD2 signaling (setting [3]); 103 nM in experiment [1] (Homo sapiens, 16 h); 6 nM in experiment [2].

As for `CN1CCC(Oc2ccc3ncnc(Oc4cnc(CC(=O)Nc5cnn(C(C)(C)C)c5)c(F)c4)c3c2)CC1` [Compound 20, N-(1-(tert-butyl)-1H-pyrazol-4-yl)-2-(3-fluoro-5-((6-((1-methylpiperidin-4-yl)oxy)quinazolin-4-yl)oxy)pyridin-2-yl)acetamide], the IC50 on RIPK2 enzyme worked out at 10.4 nM; with human NOD2 signaling (setting [3]), 21.7 nM; in experiment [1] (Homo sapiens, 16 h), 12 nM; in experiment [2], 144 nM.

On to `CC(C)(C)n1cc(NC(=O)Cc2ccc(Oc3ccnc4ccc(S(C)(=N)=O)cc34)cc2F)cn1` (stereo not shown) [Compound 43, N-(1-(tert-butyl)-1H-pyrazol-4-yl)-2-(2-fluoro-4-((6-(S-methylsulfonimidoyl)quinolin-4-yl)oxy)phenyl)acetamide], for which the IC50 was determined as 4.8 nM at RIPK2 enzyme; 39.3 nM with human NOD2 signaling (setting [3]); 5 nM in experiment [1] (Homo sapiens, 16 h); 218 nM in experiment [2].

`CN1CCC(Oc2ccc3nccc(Oc4cnc(CC(=O)Nc5cnn(C(C)(C)C)c5)c(F)c4)c3c2)CC1` [Compound 78, N-(1-(tert-butyl)-1H-pyrazol-4-yl)-2-(3-fluoro-5-((6-((1-methylpiperidin-4-yl)oxy)quinolin-4-yl)oxy)pyridin-2-yl)acetamide]: the IC50 at RIPK2 enzyme amounted to 13.4 nM; in the experiment with human NOD2 signaling (setting [3]), 32.7 nM; in experiment [1] (Homo sapiens, 16 h), 7 nM; in experiment [2], 37 nM.

Consider `Cc1cc(CC(=O)Nc2cnn(C(C)(C)C)c2)ccc1Oc1ccnc2ccc(OC3CCN(C)CC3)cc12` [Compound 82, N-(1-(tert-butyl)-1H-pyrazol-4-yl)-2-(3-methyl-4-((6-((1-methyl-piperidin-4-yl)oxy)quinolin-4-yl)oxy)phenyl) acetamide], for which the IC50 is less than 2.5 nM on RIPK2 enzyme, 1.9 nM with human NOD2 signaling (HEK-Blue-hNOD2 cells), 4 nM in experiment [1] (16 hours) and 6 nM in experiment [2].

For `CCS(=O)(=O)c1ccc2nccc(Oc3cc(F)c(CC(=O)Nc4cnn(C(C)(C)C)c4)cc3C)c2c1` [Compound 306, N-(1-(tert-butyl)-1H-pyrazol-4-yl)-2-(4-((6-(ethylsulfonyl)quinolin-4-yl)oxy)-2-fluoro-5-methylphenyl)acetamide], the IC50 at RIPK2 enzyme was less than 2.5 nM; in the experiment with human NOD2 signaling (setting [3]), 1.3 nM; in experiment [1] (Homo sapiens, 16 h), 8 nM.

As for `Cc1cc(CC(=O)Nc2cnn(C(C)(C)C)c2)cc(Cl)c1Oc1ccnc2cc(F)c(C(N)=O)cc12` [Compound 584, 4-(4-(2-((1-(tert-butyl)-1H-pyrazol-4-yl)amino)-2-oxoethyl)-2-chloro-6-methylphenoxy)-7-fluoroquinoline-6-carboxamide], the IC50 is less than 2.5 nM on RIPK2 enzyme, 1.3 nM with human NOD2 signaling (setting [3]) and 44.6 nM in experiment [2].

On to `CNC(=O)c1cc2c(Oc3c(C)cc(CC(=O)Nc4cnn(C(C)(C)C)c4)cc3Cl)ccnc2cc1F` [Compound 585, 4-(4-(2-((1-(tert-butyl)-1H-pyrazol-4-yl)amino)-2-oxoethyl)-2-chloro-6-methylphenoxy)-7-fluoro-N-methylquinoline-6-carboxamide], for which the IC50 at RIPK2 enzyme is less than 2.5 nM; in the experiment with human NOD2 signaling (setting [3]), 0.9 nM; in experiment [2] it was 29.3 nM.
